Assay results: PubChem BioAssay AID2060512 (Molecular Pharmacology Branch, DTP, NCI, 2025)

Test system: 186277-243-T-J2-PDC complex spheroid viability
Assay: Anticancer human tumor 186277-243-T-J2-PDC patient-derived colon adenocarcinoma cell line growth inhibition [GQUAD]
Conditions: for IC50: curve of first compound; for viability, T/C: stronger effect = lower value
Method in brief: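 Viability of tumor cells grown as complex spheroids with endothelial and stromal cells, exposed to drug combinations. Top concentration at or near clinical Cmax (else 10 microM), diluted in half-log increments.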

[1] = second compound 0.0316 µM, first compound 0.0316 µM
[2] = second compound 0.0316 µM, first compound 0.1 µM
[3] = second compound 0.0316 µM, first compound 0.316 µM
[4] = second compound 0.0316 µM, first compound 1 µM
[5] = second compound 0.0316 µM, first compound 3.16 µM
[6] = second compound 0.0316 µM, first compound 10 µM
[7] = second compound 0.1 µM, first compound 0.0316 µM
[8] = second compound 0.1 µM, first compound 0.1 µM
[9] = second compound 0.1 µM, first compound 0.316 µM
[10] = second compound 0.1 µM, first compound 1 µM
[11] = second compound 0.1 µM, first compound 3.16 µM
[12] = second compound 0.1 µM, first compound 10 µM
[13] = second compound 0.316 µM, first compound 0.0316 µM
[14] = second compound 0.316 µM, first compound 0.1 µM
[15] = second compound 0.316 µM, first compound 0.316 µM
[16] = second compound 0.316 µM, first compound 1 µM
[17] = second compound 0.316 µM, first compound 3.16 µM
[18] = second compound 0.316 µM, first compound 10 µM
[19] = second compound 1 µM, first compound 0.0316 µM
[20] = second compound 1 µM, first compound 0.1 µM
[21] = second compound 1 µM, first compound 0.316 µM
[22] = second compound 1 µM, first compound 1 µM
[23] = second compound 1 µM, first compound 3.16 µM
[24] = second compound 1 µM, first compound 10 µM
[25] = second compound 3.16 µM, first compound 0.0316 µM
[26] = second compound 3.16 µM, first compound 0.1 µM
[27] = second compound 3.16 µM, first compound 0.316 µM
[28] = second compound 3.16 µM, first compound 1 µM
[29] = second compound 3.16 µM, first compound 3.16 µM
[30] = second compound 3.16 µM, first compound 10 µM
[31] = second compound 10 µM, first compound 0.0316 µM
[32] = second compound 10 µM, first compound 0.1 µM
[33] = second compound 10 µM, first compound 0.316 µM
[34] = second compound 10 µM, first compound 1 µM
[35] = second compound 10 µM, first compound 3.16 µM
[36] = second compound 10 µM, first compound 10 µM
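Throughout, for viability, T/C: 100% = DMSO vehicle control viability.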

## COc1cc(C2c3cc4c(cc3C(OC3OC5COC(C)OC5C(O)C3O)C3COC(=O)C23)OCO4)cc(OC)c1O (stereo unspecified) + CN(C)c1ccc(Nc2c3ccc(NC(=O)CCN4CCCC4)cc3nc3cc(NC(=O)CCN4CCCC4)ccc23)cc1
Second compound 0.0316 µM
  IC50: 767 nM
Second compound 0.1 µM
  IC50: 757 nM
Second compound 0.316 µM
  IC50: 915 nM
Second compound 1 µM
  IC50: 808 nM
Second compound 3.16 µM
  IC50: 1340 nM
Second compound 10 µM
  IC50: 1460 nM
[1]
  viability, T/C: 112%
[2]
  viability, T/C: 99.4%
[3]
  viability, T/C: 74.2%
[4]
  viability, T/C: 38.9%
[5]
  viability, T/C: 35%
[6]
  viability, T/C: 18.6%
[7]
  viability, T/C: 91.5%
[8]
  viability, T/C: 94.5%
[9]
  viability, T/C: 72.3%
[10]
  viability, T/C: 40.4%
[11]
  viability, T/C: 34.6%
[12]
  viability, T/C: 18.6%
[13]
  viability, T/C: 113%
[14]
  viability, T/C: 96.7%
[15]
  viability, T/C: 80.5%
[16]
  viability, T/C: 42.8%
[17]
  viability, T/C: 31.7%
[18]
  viability, T/C: 15.6%
[19]
  viability, T/C: 105%
[20]
  viability, T/C: 107%
[21]
  viability, T/C: 74.6%
[22]
  viability, T/C: 42.9%
[23]
  viability, T/C: 32.9%
[24]
  viability, T/C: 17.5%
[25]
  viability, T/C: 115%
[26]
  viability, T/C: 102%
[27]
  viability, T/C: 81.1%
[28]
  viability, T/C: 49.6%
[29]
  viability, T/C: 39.9%
[30]
  viability, T/C: 16%
[31]
  viability, T/C: 107%
[32]
  viability, T/C: 74.5%
[33]
  viability, T/C: 88.6%
[34]
  viability, T/C: 50.9%
[35]
  viability, T/C: 37.2%
[36]
  viability, T/C: 15.5%

## COc1cccc2c1C(=O)c1c(O)c3c(c(O)c1C2=O)CC(O)(C(=O)CO)CC3OC1CC(N)C(O)C(C)O1 (stereo unspecified) + CN(C)c1ccc(Nc2c3ccc(NC(=O)CCN4CCCC4)cc3nc3cc(NC(=O)CCN4CCCC4)ccc23)cc1
Second compound 0.0316 µM
  IC50: 390 nM
Second compound 0.1 µM
  IC50: 369 nM
Second compound 0.316 µM
  IC50: 311 nM
Second compound 1 µM
  IC50: 280 nM
Second compound 3.16 µM
  IC50: 380 nM
Second compound 10 µM
  IC50: 438 nM
[1]
  viability, T/C: 109%
[2]
  viability, T/C: 94.3%
[3]
  viability, T/C: 59.1%
[4]
  viability, T/C: 14.6%
[5]
  viability, T/C: 0.22%
[6]
  viability, T/C: 0.33%
[7]
  viability, T/C: 96.2%
[8]
  viability, T/C: 93.8%
[9]
  viability, T/C: 54.8%
[10]
  viability, T/C: 13%
[11]
  viability, T/C: 0.14%
[12]
  viability, T/C: 0.11%
[13]
  viability, T/C: 107%
[14]
  viability, T/C: 78.9%
[15]
  viability, T/C: 53.6%
[16]
  viability, T/C: 19.4%
[17]
  viability, T/C: 0.17%
[18]
  viability, T/C: 0.49%
[19]
  viability, T/C: 105%
[20]
  viability, T/C: 88.9%
[21]
  viability, T/C: 43.2%
[22]
  viability, T/C: 16.6%
[23]
  viability, T/C: 0.37%
[24]
  viability, T/C: 0.6%
[25]
  viability, T/C: 109%
[26]
  viability, T/C: 91%
[27]
  viability, T/C: 56.4%
[28]
  viability, T/C: 19.8%
[29]
  viability, T/C: 0.3%
[30]
  viability, T/C: 0.16%
[31]
  viability, T/C: 97.7%
[32]
  viability, T/C: 81.6%
[33]
  viability, T/C: 63.5%
[34]
  viability, T/C: 21.9%
[35]
  viability, T/C: 1.2%
[36]
  viability, T/C: 0.25%

## Nc1ccn(C2OC(CO)C(O)C2(F)F)c(=O)n1 (stereo unspecified) + CN(C)c1ccc(Nc2c3ccc(NC(=O)CCN4CCCC4)cc3nc3cc(NC(=O)CCN4CCCC4)ccc23)cc1
Second compound 0.0316 µM
  IC50: < 31.6 nM
Second compound 0.1 µM
  IC50: < 31.6 nM
Second compound 0.316 µM
  IC50: < 31.6 nM
Second compound 1 µM
  IC50: < 31.6 nM
Second compound 3.16 µM
  IC50: < 31.6 nM
Second compound 10 µM
  IC50: < 31.6 nM
[1]
  viability, T/C: 10.1%
[2]
  viability, T/C: 9.64%
[3]
  viability, T/C: 9.07%
[4]
  viability, T/C: 7.19%
[5]
  viability, T/C: 8.19%
[6]
  viability, T/C: 8.56%
[7]
  viability, T/C: 10.4%
[8]
  viability, T/C: 7.92%
[9]
  viability, T/C: 8%
[10]
  viability, T/C: 7.8%
[11]
  viability, T/C: 8.64%
[12]
  viability, T/C: 8.31%
[13]
  viability, T/C: 10.9%
[14]
  viability, T/C: 7.8%
[15]
  viability, T/C: 7.03%
[16]
  viability, T/C: 7%
[17]
  viability, T/C: 8.54%
[18]
  viability, T/C: 8.47%
[19]
  viability, T/C: 8.71%
[20]
  viability, T/C: 7.38%
[21]
  viability, T/C: 6.7%
[22]
  viability, T/C: 6.93%
[23]
  viability, T/C: 8.1%
[24]
  viability, T/C: 7.47%
[25]
  viability, T/C: 8.12%
[26]
  viability, T/C: 7.76%
[27]
  viability, T/C: 7.81%
[28]
  viability, T/C: 7.28%
[29]
  viability, T/C: 8%
[30]
  viability, T/C: 7.61%
[31]
  viability, T/C: 8.33%
[32]
  viability, T/C: 7.59%
[33]
  viability, T/C: 7.12%
[34]
  viability, T/C: 6.96%
[35]
  viability, T/C: 7.9%
[36]
  viability, T/C: 7.91%
